Reference: ChEMBL document CHEMBL1201862, “PubChem BioAssay data set” (2004)
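These data come from cells grown in 96-well plates and exposed to compound for 48 hours at five concentrations. Abbreviation: GI50, concentration required for 50% inhibition of growth.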 Active and inactive are the calls of the source. No stated cut-off is given here; in the data, active = GI50 up to about 1.1 µM and inactive = higher.

Experiments:
Test in all cases: NCI tumour cell line growth inhibition, 48 h
[1] = test system: K562
[2] = test system: MDA-MB-435
[3] = test system: RXF 393
[4] = test system: SW-620
[5] = test system: SNB-19
[6] = test system: OVCAR-3
[7] = test system: DU-145
[8] = test system: 786-0
[9] = test system: HOP-62
[10] = test system: PC-3
[11] = test system: HOP-92
[12] = test system: NCI-H460
[13] = test system: IGROV-1
[14] = test system: EKVX
[15] = test system: NCI-H23
[16] = test system: SK-MEL-28
[17] = test system: MCF7
[18] = test system: HCC 2998
[19] = test system: RPMI-8226
[20] = test system: BT-549
[21] = test system: KM12
[22] = test system: UACC-257
[23] = test system: A498
[24] = test system: OVCAR-8
[25] = test system: SK-MEL-5
[26] = test system: M14
[27] = test system: TK-10
[28] = test system: Malme-3M
[29] = test system: MOLT-4
[30] = test system: COLO 205
[31] = test system: HCT-15
[32] = test system: SNB-75
[33] = test system: A549
[34] = test system: NCI/ADR-RES
[35] = test system: OVCAR-5
[36] = test system: CCRF-CEM
[37] = test system: UACC-62
[38] = test system: SK-OV-3
[39] = test system: SN12C
[40] = test system: UO-31
[41] = test system: HCT-116
[42] = test system: MDA-N
[43] = test system: SF-268
[44] = test system: SR
[45] = test system: HT-29
[46] = test system: Hs-578T
[47] = test system: SF-539
[48] = test system: NCI-H226
[49] = test system: SF-295
[50] = test system: HL-60
[51] = test system: ACHN
[52] = test system: U-251

Measured: GI50

COC(=O)c1csc(-c2csc(CCNC(=O)OC(C)(C)C)n2)n1
> 100 µM: [31]
inactive: [1] > 100 µM | [2] > 100 µM | [3] > 100 µM | [4] > 100 µM | [5] > 100 µM | [6] > 100 µM | [7] > 100 µM | [8] > 100 µM | [9] > 100 µM | [10] 56.1 µM | [11] > 100 µM | [12] > 100 µM | [13] > 100 µM | [14] > 100 µM | [15] > 100 µM | [16] > 100 µM | [17] > 100 µM | [18] > 100 µM | [19] > 100 µM | [20] 40.4 µM | [21] > 100 µM | [22] > 100 µM | [23] 26.1 µM | [24] > 100 µM | [25] 90.6 µM | [26] > 100 µM | [27] > 100 µM | [28] > 100 µM | [29] 42.7 µM | [30] > 100 µM | [32] 51.8 µM | [33] > 100 µM | [34] 54.3 µM | [35] > 100 µM | [36] 43.5 µM | [37] 59.7 µM | [38] > 100 µM | [39] > 100 µM | [40] > 100 µM | [41] > 100 µM | [42] > 100 µM | [43] > 100 µM | [44] 59.7 µM | [45] > 100 µM | [46] > 100 µM | [47] > 100 µM | [48] > 100 µM | [49] > 100 µM | [50] > 100 µM | [51] > 100 µM | [52] > 100 µM
